Measured values published in patent US20240254130A1, “SALT AND SOLID FORMS OF A KINASE INHIBITOR” (Blueprint Medicines Corporation, priority 2021, published 2024).
In brackets after ≈: the same amount, converted by molar mass. Read-outs that look alike come from different tables or passages of the source.

Tests used:
[1] = Brain penetration potential
[2] = Solubility of Compound (I) free base in solvents at 50° C.; type: physicochemical; conditions: organic solvent or mixture
[3] = Phase 1 single and multiple ascending dose study (safety, tolerability, pharmacokinetics); type: in vivo, human
Experimental: Compound (I) was administered as the monophosphate salt. Screening of subjects occurred within 28 days prior to (first) dosing. Subjects participated in only 1 cohort in only 1 study part.
Part 1 (SAD): Six (6) cohorts of 8 subjects each (6 active and 2 placebo) were evaluated. […] The first cohort (Cohort S1) included a sentinel group (1 active and 1 placebo) which was dosed at least 24 hours before the remaining 6 subjects (5 active and 1 placebo). Dosing of the remaining 6 subjects in Cohort S1 was conducted following a safety evaluation of the sentinel group.
Blood samples were collected pre-dose on Day-1, on Day 2, and on Day 5 to measure pharmacodynamic (PD) biomarker (tryptase) concentration.
Part 2 (MAD): Four (4) cohorts of 8 subjects each (6 active and 2 placebo) were evaluated.
Plasma samples were collected pre-dose on Days 1-10 for PK assessment. Plasma samples were also collected through 24 hours post-dose on Day 1 and through 96 hours post-dose on Day 10 for PK assessment. Blood samples were collected pre-dose on Day 1, and pre-dose on Days 2, 5, and 9 to measure PD biomarker (tryptase) concentration. […] Safety was assessed according to incidence and severity of adverse events in recipients of Compound (I) as compared with placebo.

[4] = as above; type: in vivo, human; conditions: five SAD cohorts and three MAD cohorts
[5] = Salt screen: stability on drying and humidity exposure, hygroscopicity; type: physicochemical
Experimental: A stock solution with concentration of 85 mg/mL was prepared in TFE. Stock solutions of fourteen different counter ions (e.g., benzenesulfonic acid, benzoic acid, phosphoric acid, sulfuric acid, citric acid, glucuronic acid, glutamic acid, hydrochloric acid, malic acid, methanesulfonic acid, Succinic acid, tartaric acid, toluenesulfonic acid, and acetic acid) were prepared in EtOH. 352 μL (30 mg) of the freebase solution was added to each vial. 1.1 and/or 2.2 equivalents of the appropriate counter ion stock solution were added to each vial. The vials were left to stir at 45° C. for two hours before being uncapped and left to evaporate at 40° C. with stirring overnight in atmosphere. The vials were then placed under active vacuum at 50° C. for 3 hours to dry thoroughly. Approximately, 20 volumes (600 μL) of screening solvent were then added to each vial, and the samples were heated to 45° C. with stirring (450 rpm). […] After two hours, the samples were left to stir at room temperature.
Crystalline salts were characterized and evaluated for viability based on melting point, crystallinity, stability on drying and humidity exposure, water solubility, polymorphism, and acceptability of counter-ion.

Molecule | brain penetration potential [1] | solubility ([2]; ACN:water (7:3 vol.), sample 82-2, read-out: Solubility (mg/mL) at 50° C.) [mg/mL] | solubility ([2]; t-BuOH, sample 83-1, read-out: Solubility (mg/mL) at 50° C.) [mg/mL] | solubility ([2]; t-BuOH:water (9:1 vol.), sample 83-2, read-out: Solubility (mg/mL) at 50° C.) [mg/mL] | severity of adverse events ([3]; abdominal pain, decreased appetite, fatigue, headache, nausea, mostly not related to the drug) | increase in systemic exposure with dose ([3]; across SAD and MAD cohorts) | linearity of pharmacokinetics ([3]; across the dose ranges in SAD and MAD cohorts) | half-life ([3]; human, plasma, oral, healthy adult subjects, given as monophosphate salt, read-out: mean half-life (t1/2)) [h] | Vd/F ([3]; human, plasma, oral, healthy adult subjects, read-out: geometric mean Vz/F) [L] | Tmax ([3]; human, plasma, single oral doses 15-200 mg, fasting, healthy adult subjects, given as monophosphate salt, read-out: median Tmax) [h] | findings in laboratory or vital signs parameters ([3]; in vivo) | serious AEs ([3]; in vivo) | steady state expected to be reached ([3]; once-daily oral dosing) [days] | tolerability [4] | behaviour of solids upon humidification (high humidity) [5]
C[C@](N)(c1ccc(F)cc1)c1cnc(N2CCN(c3ncnn4cc(-c5cnn(CCO)c5)cc34)CC2)nc1 [Compound (I), (S)-2-(4-(4-(4-(5-(1-amino-1-(4-fluorophenyl)ethyl)pyrimidin-2-yl)piperazin-1-yl)pyrrolo[1,2-f][1,2,4]triazin-6-yl)-1H-pyrazol-1-yl)ethanol] | limited | 8.6 (≈ 16.3 mM) | < 2.6 | < 2.6 | Only Grade 1 adverse events | dose-proportional increase | linear | 20 to 28 | 753 to 973 | 1.5 to 6 | no clinically relevant findings | No serious AEs were reported | ≤ 7 | well-tolerated | –
tosylate | – | – | – | – | – | – | – | – | – | – | – | – | – | – | deliquescing
